{"source": "patent US20070219210A1", "about": "“Amidopyrazole Derivative” (Daiichi Pharmaceutical Co., LTD., priority 2003, published 2007)", "key": {"[1]": {"test_system": "collagen-induced platelet coagulation", "settings": "background art (Patent Document 1, Non-patent Document 5); read-out: IC50 value against collagen-induced platelet coagulation; cited from earlier work"}, "[2]": {"test_system": "collagen-induced platelet coagulation", "experiment": "Inhibitory effect on collagen-induced platelet coagulation in platelet rich plasma", "format": "cell-based", "settings": "human platelet rich plasma, 37° C., coagulation induced with collagen; read-out: Inhibition of collagen-induced platelet coagulation, IC50", "procedure": "Human blood was collected by using 1/10 volume of 3.13% sodium citrate as an anticoagulant, and the blood was centrifuged at 180 g for 10 minutes to separate platelet rich plasma (PRP), which was the upper layer. After collecting the upper layer PRP, the remaining lower layer was centrifuged at 1600 g for 10 minutes, and platelet poor plasma (PPP) in the upper layer was collected. 1 μl solution of the compound of the Examples was added to 200 μl of the PRP, and after allowing the sample to stand at 37° C. for 2 minutes, 2 μl of collagen was added in order to induce platelet coagulation. Platelet coagulation rate was measured with PAM-12C (SSR Engineering)."}, "Cyclooxygenase-1 (COX-1)": {"biological_target": "T1, Cyclooxygenase-1 (COX-1) (Ovis aries, UniProt P05979)", "T1 construct": "purchased Cayman Chemical Company 560101", "T1 sequence (P05979 25-600)": "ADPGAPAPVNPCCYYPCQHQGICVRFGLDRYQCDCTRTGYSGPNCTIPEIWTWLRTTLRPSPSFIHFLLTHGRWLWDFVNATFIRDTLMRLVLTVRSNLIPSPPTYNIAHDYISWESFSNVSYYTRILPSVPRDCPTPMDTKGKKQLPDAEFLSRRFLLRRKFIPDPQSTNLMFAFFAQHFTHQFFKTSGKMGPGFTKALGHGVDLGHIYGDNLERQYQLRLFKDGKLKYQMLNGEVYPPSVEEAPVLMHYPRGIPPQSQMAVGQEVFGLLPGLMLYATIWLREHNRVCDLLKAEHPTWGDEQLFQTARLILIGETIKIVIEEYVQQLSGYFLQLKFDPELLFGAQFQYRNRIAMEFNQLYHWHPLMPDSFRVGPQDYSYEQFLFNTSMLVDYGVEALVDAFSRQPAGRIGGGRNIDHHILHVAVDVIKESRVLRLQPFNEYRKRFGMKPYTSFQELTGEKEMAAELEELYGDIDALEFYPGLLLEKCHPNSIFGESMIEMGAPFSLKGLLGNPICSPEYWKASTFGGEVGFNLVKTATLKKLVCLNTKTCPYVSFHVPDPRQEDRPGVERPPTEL", "experiment": "COX Inhibitor Screening Assay Kit (Cayman), PGF2α by ELISA, COX-1", "format": "biochemical", "settings": "compound at 50 μm; relative to PGF2α produced without compound (100%)", "procedure": "(§1) Inhibitory activity against COX-1 and COX-2 of the compounds produced in the Examples was measured by using COX Inhibitor Screening Assay Kit (Catalog Nos. 560101 and 560121) purchased from Cayman Chemical Company.\n(§2) Before starting the measurement, reaction buffer, heme, arachidonic acid, SnCl2, EIA buffer, washing buffer, prostaglandin (PG) screening EIA standard, PG screening acetylcholine esterase (AchE), tracer (chromogenic enzyme HRP conjugate), and PC screening EIA antiserum were prepared ready for use.\n(§3) The reaction mixture containing the compound of the Examples (50 μM) and COX-1 or COX-2 was allowed to stand at 37° C. or 10 minutes, and after adding 10 μl of arachidonic acid, the solution was again allowed to stand at 37° C. for 2 minutes. After the reaction, the reaction was terminated by adding 50 μl of 1N-hydrochloric acid, and 100 μl solution of SnCl2 was added, and the reaction mixture was allowed to stand at room temperature for 5 minutes.\n(§4) 50 μl of antiserum (rabbit anti-PGF2α antibody) was placed in the wells of 96 well plate that had been coated with mouse anti-rabbit IgG and 50 μl of the 2000-fold diluted PGF2α-containing liquid described above and 50 μl of AchE tracer were added to the well in this order, and the mixture was allowed to stand at room temperature for 18 hours. The wells were washed 5 times with the washing buffer to remove an excessive AchE tracer, and 200 μl of Ellman reagent was added. After leaving the plate in a dark room for 60 minutes, absorbance was measured at 405 nm.\n(§5) A calibration curve was obtained by using the PG screening EIA standard, and the amount of PGF2α produced was determined from the absorption. Inhibitory rate at 50 μM of the compound of the Examples against COX-1 or COX-2 was calculated.\n(§6) It is to be noted that the inhibitory rate was calculated in relation to the amount of the PGF2α produced by the reaction liquid free from the compounds of the Examples, which was taken 100%."}, "Cyclooxygenase-2 (COX-2)": {"biological_target": "T2, Cyclooxygenase-2 (COX-2) (Homo sapiens, UniProt P35354)", "T2 construct": "purchased Cayman Chemical Company 560121", "T2 sequence (P35354 18-604)": "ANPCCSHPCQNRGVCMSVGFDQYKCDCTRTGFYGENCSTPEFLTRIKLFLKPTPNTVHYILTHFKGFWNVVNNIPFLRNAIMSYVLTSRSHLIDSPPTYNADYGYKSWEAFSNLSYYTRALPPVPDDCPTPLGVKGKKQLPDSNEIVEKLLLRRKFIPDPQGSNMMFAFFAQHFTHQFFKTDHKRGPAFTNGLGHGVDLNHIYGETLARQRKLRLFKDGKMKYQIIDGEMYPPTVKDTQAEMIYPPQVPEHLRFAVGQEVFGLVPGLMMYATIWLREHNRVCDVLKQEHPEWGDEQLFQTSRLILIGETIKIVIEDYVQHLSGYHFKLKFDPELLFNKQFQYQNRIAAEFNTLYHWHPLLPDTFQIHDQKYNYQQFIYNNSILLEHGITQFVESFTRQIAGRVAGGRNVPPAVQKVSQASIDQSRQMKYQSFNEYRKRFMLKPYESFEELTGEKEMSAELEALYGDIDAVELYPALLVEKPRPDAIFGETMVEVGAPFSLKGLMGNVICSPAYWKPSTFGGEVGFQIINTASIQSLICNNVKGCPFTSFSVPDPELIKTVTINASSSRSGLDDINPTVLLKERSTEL", "experiment": "COX Inhibitor Screening Assay Kit (Cayman), PGF2α by ELISA, COX-2", "format": "biochemical", "settings": "compound at 50 μm; relative to PGF2α produced without compound (100%)", "procedure": "as §1, §2, §3, §4, §5, §6"}}, "note": "Where two headings read alike, the source gives them in different places."}
{"smiles": "CS(=O)(=O)c1ccc(-c2cc(C#N)nn2-c2ccc(F)cc2)cc1", "note": "[Compound (A)]", "values": [{"measurement": "IC50", "setting": "[1]", "value": 5300, "unit": "nM"}]}
{"smiles": "CC(C)(C)NC(=O)c1cc(-c2ccc(Cl)cn2)n(-c2cccnc2)n1", "note": "[Example 28, N-tert-Butyl-5-(5-chloro-2-pyridyl)-1-(3-pyridyl)-1H-pyrazole-3-carboxamide]", "values": [{"measurement": "IC50", "setting": "[2]", "value": 8.9, "unit": "nM"}, {"measurement": "Inhibitory effect against COX-1 at 50 μm (% inhibition)", "setting": "Cyclooxygenase-1 (COX-1)", "value": 5.4, "unit": "% inhibition"}, {"measurement": "Inhibitory effect against COX-2 at 50 μm (% inhibition)", "setting": "Cyclooxygenase-2 (COX-2)", "value": 7.6, "unit": "% inhibition"}]}
{"smiles": "Cc1cnc(-c2cc(C(=O)NC(C)(C)C)nn2-c2cccnc2)cn1", "note": "[Example 65, N-tert-Butyl-5-(5-methyl-2-pyrazinyl)-1-(3-pyridyl)-1H-pyrazole-3-carboxamide]", "values": [{"measurement": "IC50", "setting": "[2]", "value": 20, "unit": "nM"}, {"measurement": "Inhibitory effect against COX-1 at 50 μm (% inhibition)", "setting": "Cyclooxygenase-1 (COX-1)", "value": 11.6, "unit": "% inhibition"}, {"measurement": "Inhibitory effect against COX-2 at 50 μm (% inhibition)", "setting": "Cyclooxygenase-2 (COX-2)", "value": "−1.6", "unit": "% inhibition"}]}
{"smiles": "CC(C)(C)NC(=O)c1cc(-c2ccc(CO)cn2)n(-c2cccnc2)n1", "note": "[Example 26, N-tert-Butyl-5-(5-hydroxymethyl-2-pyridyl)-1-(3-pyridyl)-1H-pyrazole-3-carboxamide]", "values": [{"measurement": "IC50", "setting": "[2]", "value": 65, "unit": "nM"}, {"measurement": "Inhibitory effect against COX-1 at 50 μm (% inhibition)", "setting": "Cyclooxygenase-1 (COX-1)", "value": 5.5, "unit": "% inhibition"}, {"measurement": "Inhibitory effect against COX-2 at 50 μm (% inhibition)", "setting": "Cyclooxygenase-2 (COX-2)", "value": 8.2, "unit": "% inhibition"}]}
{"smiles": "COc1ccc(-n2nc(C(=O)NC(C)(C)C)cc2-c2cnccn2)cn1", "note": "[Example 13, N-tert-Butyl-1-(6-methoxy-3-pyridyl)-5-(2-pyrazinyl)-1H-pyrazole-3-carboxamide]", "values": [{"measurement": "IC50", "setting": "[2]", "value": 18, "unit": "nM"}, {"measurement": "Inhibitory effect against COX-1 at 50 μm (% inhibition)", "setting": "Cyclooxygenase-1 (COX-1)", "value": 13.9, "unit": "% inhibition"}, {"measurement": "Inhibitory effect against COX-2 at 50 μm (% inhibition)", "setting": "Cyclooxygenase-2 (COX-2)", "value": 9.2, "unit": "% inhibition"}]}
{"smiles": "COc1ccc(-n2nc(C(=O)NC3CCCC3)cc2-c2ccccn2)nn1", "note": "[Example 56, N-Cyclopentyl-1-(6-methoxy-3-pyridazinyl)-5-(2-pyridyl)-1H-pyrazole-3-carboxamide]", "values": [{"measurement": "IC50", "setting": "[2]", "value": 92, "unit": "nM"}, {"measurement": "Inhibitory effect against COX-1 at 50 μm (% inhibition)", "setting": "Cyclooxygenase-1 (COX-1)", "value": "−1.2", "unit": "% inhibition"}, {"measurement": "Inhibitory effect against COX-2 at 50 μm (% inhibition)", "setting": "Cyclooxygenase-2 (COX-2)", "value": "−1.7", "unit": "% inhibition"}]}
{"smiles": "CC(C)(C)NC(=O)c1cc(-c2ccc(O)cn2)n(-c2cccnc2)n1", "note": "[Example 22, N-tert-Butyl-5-(5-hydroxy-2-pyridyl)-1-(3-pyridyl)-1H-pyrazole-3-carboxamide]", "values": [{"measurement": "IC50", "setting": "[2]", "value": 210, "unit": "nM"}, {"measurement": "Inhibitory effect against COX-1 at 50 μm (% inhibition)", "setting": "Cyclooxygenase-1 (COX-1)", "value": 0.8, "unit": "% inhibition"}, {"measurement": "Inhibitory effect against COX-2 at 50 μm (% inhibition)", "setting": "Cyclooxygenase-2 (COX-2)", "value": 4.2, "unit": "% inhibition"}]}
